From patent US10562863B2, “Heterobifunctional linker” (THE GOVERNORS OF THE UNIVERSITY OF ALBERTA, priority 2016, dated 2020)

target: T1, branched-chain amino acid-binding protein LivF (Escherichia coli, UniProt P0AD96); assay: Competitive lateral flow assay, LivF test band; design: species or system E. coli; conditions: free Leu 0.5 and 2 mg/ml; 1M urea; citrate 2 mg/ml
T1 construct: inferred from the pET15b vector and Ni-NTA purification; made in house; host or cells: E. coli BL21
T1 sequence (P0AD96 24-367): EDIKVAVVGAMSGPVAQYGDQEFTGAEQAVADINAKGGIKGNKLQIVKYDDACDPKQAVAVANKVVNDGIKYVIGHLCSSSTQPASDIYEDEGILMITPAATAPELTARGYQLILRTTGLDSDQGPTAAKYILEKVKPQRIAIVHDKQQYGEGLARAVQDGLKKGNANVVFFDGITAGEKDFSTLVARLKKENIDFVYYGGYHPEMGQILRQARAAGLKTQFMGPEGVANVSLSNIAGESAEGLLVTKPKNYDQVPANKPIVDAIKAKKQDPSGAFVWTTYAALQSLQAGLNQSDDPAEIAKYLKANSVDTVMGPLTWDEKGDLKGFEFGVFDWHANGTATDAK
From the text: We generated a useful metabolite sensor using a combination of a lateral flow assay (LFA), a metabolite-L1-AuNP conjugate (Leucine) and metabolite-specific protein. […] In our assay, the branched-chain amino acid-binding protein LivF35 was loaded onto nitrocellulose strips as the detection protein (“Test band”) and as the “Control band” the glutamate/aspartate binding protein Gltl36 was used, since the gold nanoparticles are stabilized with glutamate on their surface and that can be detected by Gltl as flow control. Leucine-decorated gold nanoparticles were loaded at the end of the strip in solution, with or without competing free leucine and the flow assay was performed.
To prepare the LFA strips, lug of each protein (from a 0.5 ug/ul solution in 50 mM phosphate buffer, pH 7.5) was loaded onto FF80 nitrocellulose strips as a 0.5 cm line. 20 ul of a suspension of metabolite-coated AuNPs (3 mg/mL) was loaded onto the end of the membrane strips and allowed to flow through via capillary action. Bands showing the captured gold nanoparticles were documented with an electronic flatbed scanner (Canon Canoscan 5600).

Structure (SMILES)	Effect of free metabolite on LivF detection of leucine-coated AuNP
O=C(O)CC(O)(CC(=O)O)C(=O)O [citrate]	not hampered
CC(C)C[C@H](N)C(=O)O [free leucine, leucine]	abrogated
NC(N)=O [urea]	not hampered
